Experimental data published in patent US10072055B2, “Anti-inflammatory pharmaceutical products” (Resother Pharma APS, priority 2011, dated 2018).
“Also recorded” adds a separate entry of the source. Ends that are not written are not given here.

How the values were obtained:
[1] = Anti-inflammatory properties, test not specified
[2] = tested on: PMN interaction to an activated HUVEC monolayer; assay: Flow chamber assay: PMN interaction with activated HUVEC monolayer (capture, rolling, adhesion); assay type: cell-based, human; conditions: for inhibition of PMN/neutrophil-endothelium interactions in flow chamber: concentration not given
Excerpt: FIGS. 2A-2C are a series of charts reporting data from flow chamber analysis to determine the inhibitory capability of five polypeptides of the present disclosure (Pep57 (SEQ ID NO:12); Pep59 (SEQ ID NO:13), Pep60 (SEQ ID NO:15), Pep83 (SEQ ID NO:16) and Pep84 (SEQ ID NO:14)) and Ac-ANAX1(2-26)-OH to reduce PMN interaction to an activated HUVEC monolayer.
FIGS. 4A-4C are a series of bar charts reporting percent inhibition provided by three polypeptides (UGP022 (SEQ ID NO:5); UGP025 (SEQ ID NO:7) and UGP026 (SEQ ID NO:8)) of the present disclosure, at different concentrations, on three different parameters (capture—FIG. 4A; rolling—FIG. 4B; and adhesion—FIG. 4C).
FIGS. 2A-2C are a series of charts reporting data from flow chamber analysis to determine the inhibitory capability of five polypeptides (Pep57 (SEQ ID NO: 12); Pep59 (SEQ ID NO: 13), Pep60 (SEQ ID NO: 15), Pep83 (SEQ ID NO: 16) and Pep84 (SEQ ID NO: 14)) of the present disclosure and Ac-ANAX1(2-26)-OH to reduce PMN interaction to an activated HUVEC monolayer. PMNs (5×10^6) were incubated with 10 μM of the various peptides for 10 min at 37° C. The PMNs were then flowed for 8 min at 1 dyne/cm^2, prior to quantifying the degree of PMN interaction with the HUVECs, both as PMN capture (FIG. 2A), adhesion (FIG. 2B) and rolling (FIG. 2C). […] Data are mean±SEM of 3 independent experiments (with distinct PMN and HUVEC preparations); *=P<0.05 vs. CT group, data analyzed using one way ANOVA.
FIGS. 4A-4C make a direct comparison of the activities of UGP022 (SEQ ID NO:5), UGP025 (SEQ ID NO: 7) and UGP026 (SEQ ID NO: 8) in the flow chamber assay, presenting the degree of inhibition on the three parameters under analysis (capture (FIG. 4A); rolling (FIG. 4B) and adhesion (FIG. 4C)).

FPR2 = target: T1, FPR2 (Homo sapiens, UniProt P25090); assay: Binding affinity to FPR2
T1 sequence (P25090 1-351): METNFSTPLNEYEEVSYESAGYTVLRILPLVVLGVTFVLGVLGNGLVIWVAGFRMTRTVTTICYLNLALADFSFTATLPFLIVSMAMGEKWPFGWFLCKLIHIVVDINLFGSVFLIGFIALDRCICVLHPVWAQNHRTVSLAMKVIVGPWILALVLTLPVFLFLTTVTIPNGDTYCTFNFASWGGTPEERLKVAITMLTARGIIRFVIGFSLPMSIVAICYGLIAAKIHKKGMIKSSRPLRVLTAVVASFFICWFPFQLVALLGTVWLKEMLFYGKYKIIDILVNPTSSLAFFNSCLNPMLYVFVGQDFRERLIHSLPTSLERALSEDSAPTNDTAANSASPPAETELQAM

[3] = tested on: phagocytosis of apoptotic cells; assay: Phagocytosis of apoptotic PMN (efferocytosis); assay type: cell-based
Excerpt: FIG. 5 is a series of bar charts reporting the ability of three polypeptides (UGP022 (SEQ ID NO:5); UGP025 (SEQ ID NO:7) and UGP026 (SEQ ID NO:8))_of the present disclosure, at different concentrations, to mimic an Annexin A1 property of inducing phagocytosis of apoptotic cells.
In recent years important pro-resolving properties have been ascribed to Annexin A1, namely the induction of phagocytosis of apoptotic cells by macrophages and cells alike. This effect is also reliant on FPR2 and shared with other important pro-resolving mediators including the lipoxins and the resolvins.
FIG. 5 is a series of bar charts reporting the ability of three polypeptides (UGP022 (SEQ ID NO:5); UGP025 (SEQ ID NO:7) and UGP026 (SEQ ID NO:8)) of the present disclosure, at different concentrations, to mimic an Annexin A1 property of inducing phagocytosis of apoptotic cells.

PR3 = target: T2, PR3 (Homo sapiens, UniProt P24158); assay: In vitro degradation/digest in the presence of PR3; assay type: in vitro ADME
T2 sequence (P24158 28-248 limits assumed): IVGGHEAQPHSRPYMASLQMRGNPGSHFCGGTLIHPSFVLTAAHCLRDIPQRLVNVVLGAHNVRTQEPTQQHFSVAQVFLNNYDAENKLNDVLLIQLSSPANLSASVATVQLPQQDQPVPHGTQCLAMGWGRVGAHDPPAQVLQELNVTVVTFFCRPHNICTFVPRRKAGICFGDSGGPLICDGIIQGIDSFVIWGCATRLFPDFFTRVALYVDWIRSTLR
Procedure: FIG. 8 is a logarithmic plot of the degradation over time of three polypeptides of the present disclosure, UGP022 (SEQ ID NO: 5), UGP025 (SEQ ID NO: 7) and UGP026 (SEQ ID NO: 8) in the presence of PR3, a protease implicated in the in vivo cleavage of Annexin 1.
In an attempt to improve the potency and increase the half-life of the UGP022 peptide of the present disclosure (SEQ ID NO: 5), a series of in vitro PR3 and FINE digests were conducted. […] This cleavage site is not believed to have been identified in the literature.
Degradation tests of three polypeptides of the present disclosure, UGP022 (SEQ ID NO:5), UGP025 (SEQ ID NO:7) and UGP026 (SEQ ID NO:8) in the presence of PR3, a protease implicated in the in vivo cleavage of Annexin 1, indicated better stability for polypeptides with Leucine substitution at position 24 relative to a polypeptide lacking that feature. Position 24 corresponds to position 25 of Annexin 1 because all tested polypeptides lack the methionine at position 1 of natural Annexin. A 47-residue polypeptide outperformed an otherwise identical 49-residue polypeptide. Similar results were obtained in degradation tests in the presence of FINE.
FIG. 8 is a logarithmic plot of the degradation over time of three polypeptides of the present disclosure, UGP022 (SEQ ID NO:5), UGP025 (SEQ ID NO:7) and UGP026 (SEQ ID NO:8) in the presence of PR3, a protease implicated in the in vivo cleavage of Annexin 1. […] Also, a 47-residue polypeptide amidated at its C-terminus outperformed an otherwise identical 49-residue polypeptide amidated at its C-terminus.

Substance	anti-inflammatory properties in vitro and in vivo [1]	activity in flow chamber assay at 100 fM ([2]; 100 fM)	inhibition of PMN/neutrophil-endothelium interactions in flow chamber [2]	activity in flow chamber assay at the higher concentrations tested ([2]; higher concentrations)	affinity to FPR2 over FPR1 (FPR2)	binding affinity to FPR2 (FPR2)	induction of phagocytosis of apoptotic PMN [3]	stability / resistance to PR3 degradation (PR3)	in vitro results, amidated vs free acid precursor [1]	lowest concentration with significant anti-inflammatory effect on human PMN ([2]; human PMN)	cleavage sites by PR3 (PR3; in vitro digest)
AMVSEFLKQAWFIENEEQEYVQTLKSSKGGPGSAVSPYPTFNPSSDV-NH2 [UGP025, Leu25-ANXA1(2-48)-NH2]	seeming more potent	slightly more active at the 100 fM concentration when compared to the UGP022 peptide	able to reduce the number of human PMNs interacting with an activated endothelium, acting specifically through the FPR2 receptor	less active at the higher concentrations tested	retain a higher affinity to FPR2 over FPR1	seems to have a higher affinity to FPR2 than does UGP026	promoted phagocytosis of the apoptotic PMN	more resistant to PR3 and FINE than the UGP022 peptide	–	–	–
AMVSEFLKQAWFIENEEQEYVQTVKSSKGGPGSAVSPYPTFNPSSDVAA-NH2 [UGP022, ANXA1(2-50)-NH2]	–	–	more potent than either the UGP021 peptide; also recorded: able to reduce the number of human PMNs interacting with an activated endothelium, acting specifically through the FPR2 receptor	–	–	binding affinity to the FPR2 in the nanomolar range; also recorded: showing the highest affinity	displaying the higher ability to induce this process	–	shows better in vitro results than with a free acid precursor	1 pM	Ala 10 (Ala11 relative to Annexin 1) and Val 21 (Val22 relative to Annexin 1); also recorded: Val 24 (Val25 relative to Annexin 1)
AMVSEFLKQAWFIENEEQEYVQTLKSSKGGPGSAVSPYPTFNPSSDVAA-NH2 [UGP026, Leu25-ANXA1(2-50)-NH2]	possess anti-inflammatory properties both in vitro and in vivo	–	able to reduce the number of human PMNs interacting with an activated endothelium, acting specifically through the FPR2 receptor	–	retain a higher affinity to FPR2 over FPR1	–	promoted phagocytosis of the apoptotic PMN	more resistant to PR3 and FINE than the UGP022 peptide	–	–	–
